Test results from publication PMC7197350, “Targeted chemotherapy overcomes drug resistance in melanoma” (Genes & Development, 2020).

How the values were obtained:
Assay in all cases: cells
Parameters in all cases: growth inhibition of A375 parental and resistant melanoma cells, dose-response curves
Details in all cases: Homo sapiens, A-375, 96 h; read-out: Phendione IC50
A375 = tested on: A375
Method: (§1) Figure 2. Phendione is a small molecule inhibitor targeting PP2A. (A) Immunoblots of A375 cell lysates collected after 3 h of drug treatment as indicated; i.e., increasing concentrations of LB100 compared with 0.2 µM phendione (left) and increasing concentrations of phendione compared with 3 µM pyrene (right). DMSO was used as negative control (vehicle). (B) Growth inhibition curves of A375 cells and IC50 values after treatment with phendione or LB100 for 96 h. Data are presented as mean ± SD of three independent experiments. (C) Phosphatase activity assay for PP2A core enzyme (complex of regulatory subunit Aα and catalytic subunit Cα; top), PP1 catalytic subunit Cα (middle) and PP1 catalytic subunit Cβ (bottom) incubated with phendione or pyrene at indicated concentrations. […] IC50s (micromolar) were calculated and is shown as an inset in each graph. […] (G) Quantification of cell apoptosis measured by Annexin V staining flow cytometry. Parental A375 and A375 BRAFi-resistant cells were treated with vehicle or increasing concentration of phendione as indicated in the panels for 24 h before apoptotic cells were measured by flow cytometry. […] Representative images are shown at the left and quantification results are shown at the right. […] (I,J) Quantification of reactive oxygen species (ROS) production measured by flow cytometry in A375 (I) and A375 BRAFi-resistant (J) cells. […]

A375 BRAFi resistant = tested on: A375 BRAFi resistant
Method: as §1

[1] = tested on: A375 BRAFi + MEKi resistant

## O=C1C(=O)c2cccnc2-c2ncccc21 [phendione, 1,10-phenanthroline-5,6-dione]
A375
  IC50: 94 nM
A375 BRAFi resistant
  IC50: 113 nM
[1]
  IC50: 119 nM
